# According to patent US20170290774A1, “NEUROKININ-1 RECEPTOR ANTAGONIST COMPOSITION FOR TREATMENT OF DISEASES AND CONDITIONS OF THE RESPIRATORY TRACT” (PLUS VITECH, S.L., priority 2014, published 2017):
# Test system: MMP-14
# Assay: Immunohistochemistry of MMP-14 in respiratory tract tissue of sodium hypochlorite aerosol-treated rabbits
# Type: in vivo, New Zealand albino rabbits
# Excerpt: It is known that the factors TGF-α, TGF-β 1, TGF-β 2, TGF-β 3, SPARC, MMP-3; MMP-7, MMP-9, MMP-11, MMP-13 and MMP-14, TGF-β, NF-kB, EGF, MMP-9, VEGF and TNF-α which are produced by lung cells (pneumocytes, fibroblasts and vascular endothelial cells) and inflammatory cells (macrophages, lymphocytes and polymorphonuclear leukocytes) are involved in the pathophysiology and development of said respiratory tract diseases. […] Herein, 27 New Zealand albino rabbits (New Zealand White Rabbit) with an initial average weight about 3 kg were used in this example. All subjects were administered an aerosol of a solution consisting of a mixture of water and sodium hypochlorite (35 g sodium hypochlorite per liter of water) at a rate of 5 mL of said solution by inhalation three times a day for 7 days (days 1 to 7 of experimentation). Subsequently, from days 3 to 7, a group of 3 rabbits (Group 1) was administered an oral dose of 10 mg/kg body weight per day, another group of 3 rabbits (Group 2) was administered an oral dose of 40 mg/kg body weight per day, a third group (Group 3) was administered an oral dose of 80 mg/kg body weight per day and a fourth group (Group 4) was administered an oral dose of 100 mg/kg body weight per day. […] This mixture was administered as an aerosol by inhalation, also from days 3 to 7, to a group of 3 rabbits (group 5) at a dose of 0.05 mg/kg body weight per day, to another group of three rabbits (Group 6) at a dose of 0.1 mg/kg body weight per day, to another group of three rabbits (Group 7) at a dose of 0.2 mg/kg body weight per day and to another group of three rabbits (Group 8) at a dose of 0.4 mg/kg body weight per day. A placebo consisting only of olive oil was administered from days 3 to 7 to a control group of 3 rabbits (placebo group). In parallel, 3 rabbits were kept under identical conditions but were not administered any treatment nor the aforementioned sodium hypochlorite solution (control group). […] On day 7 of the experiment all animals were euthanized and necropsied. […] Samples were taken at the peripheral level of the lung parenchyma, just below the pleural surface. Tissue samples were also taken from the nasal cavity, pharynx, larynx and bronchi. Immunohistochemistry studies were performed for all samples to evaluate the levels of the markers TGF-α, TGF-β 1, TGF-β 2, TGF-β 3 SPARC, MMP-3; MMP-7, MMP-9, MMP-11, MMP-14, TGF-β, TNF-α and VEGF. In said immunohistochemistry studies, a sample of each sample was dehydrated by treatment with increasing concentrations of ethanol and finally xylene. Subsequently said dried samples were embedded in paraffin, thus creating a block. Said paraffin blocks were cut on a microtome to a thickness of 5 μm, and the resulting sections (slices) were placed on slides suitable for conducting immunohistochemistry techniques. Subsequently, the sections were deparaffinised by immersion in xylene and then rehydrated through immersion in a series of solutions containing decreasing concentrations of ethanol and, finally, water. […] The samples were then allowed to cool to room temperature over 10 minutes. Endogenous peroxidase activity was blocked by treatment with 3% hydrogen peroxide over 30 min at room temperature. […] In order to verify the expression of NK1 receptors, the cell samples were incubated in the presence of anti-NK1 antibodies ([…], Sigma-Aldrich) diluted 1:1000 at 4° C. overnight. After this time they were washed in 0.05M Tris buffer at room temperature. Subsequently, Envision System-HRP (Dako) reagents were added for 30 min at room temperature. Once this time had expired, the samples were again washed with 0.05 M Tris buffer, and immunoreactivity was visualized by light microscopy with a chromogenic solution with 3,3'-diaminobenzidine (DAB+; Dako, USA). In order to differentiate the cell nuclei, these were lightly stained with haematoxylin. Samples that were not incubated with the primary antibody, but wherein this was replaced by a non-immune serum were used as negative controls. […]
smiles,measurement,setting,value
"C[C@@H](OC1OCCN(Cc2nc(=O)[nH][nH]2)C1c1ccc(F)cc1)c1cc(C(F)(F)F)cc(C(F)(F)F)c1 (stereo in doubt) [Aprepitant, 5-([(2R,3S)-2-((R)-1-[3,5-bis(trifluoromethyl)phenyl]ethoxy)-3-(4-fluorophenyl)morpholino]methyl)-1H-1,2,4-triazol-3(2H)-one]",Percent increase in MMP-14 with respect to the control group,"bronchial tissue, Group 1, oral 10 mg/kg per day",567.32%
same,Percent increase in MMP-14 with respect to the control group,"bronchial tissue, Group 2, oral 40 mg/kg per day",434.45%
same,Percent increase in MMP-14 with respect to the control group,"bronchial tissue, Group 3, oral 80 mg/kg per day",325.56%
same,Percent increase in MMP-14 with respect to the control group,"bronchial tissue, Group 4, oral 100 mg/kg per day",312.56%
same,% Med G5/C: percent increase in marker MMP-14 with respect to the control group,"bronchial tissue, Group 5",458.45%
same,% Med G6/C: percent increase in marker MMP-14 with respect to the control group,"bronchial tissue, Group 6",342.32%
same,% Med G7/C: percent increase in marker MMP-14 with respect to the control group,"bronchial tissue, Group 7",246.47%
same,% Med G8/C: percent increase in marker MMP-14 with respect to the control group,"bronchial tissue, Group 8",164.63%
same,Percent increase in MMP-14 with respect to the control group,"laryngeal tissue, Group 1, oral 10 mg/kg per day",678.45%
same,Percent increase in MMP-14 with respect to the control group,"laryngeal tissue, Group 2, oral 40 mg/kg per day",567.34%
same,Percent increase in MMP-14 with respect to the control group,"laryngeal tissue, Group 3, oral 80 mg/kg per day",459.43%
same,Percent increase in MMP-14 with respect to the control group,"laryngeal tissue, Group 4, oral 100 mg/kg per day",387.34%
same,Percent increase in MMP-14 with respect to the control group,"laryngeal tissue, Group 5, inhalation 0.05 mg/kg per day",639.34%
same,Percent increase in MMP-14 with respect to the control group,"laryngeal tissue, Group 6, inhalation 0.1 mg/kg per day",543.12%
same,Percent increase in MMP-14 with respect to the control group,"laryngeal tissue, Group 7, inhalation 0.2 mg/kg per day",342.23%
same,Percent increase in MMP-14 with respect to the control group,"laryngeal tissue, Group 8, inhalation 0.4 mg/kg per day",201.28%
same,Percent increase in MMP-14 with respect to the control group,"lung tissue, Group 1, oral 10 mg/kg per day",683.47%
same,Percent increase in MMP-14 with respect to the control group,"lung tissue, Group 2, oral 40 mg/kg per day",569.37%
same,Percent increase in MMP-14 with respect to the control group,"lung tissue, Group 3, oral 80 mg/kg per day",441.85%
same,Percent increase in MMP-14 with respect to the control group,"lung tissue, Group 4, oral 100 mg/kg per day",354.84%
same,Percent increase in MMP-14 with respect to the control group,"lung tissue, Group 5, inhalation 0.05 mg/kg per day",769.70%
same,Percent increase in MMP-14 with respect to the control group,"lung tissue, Group 6, inhalation 0.1 mg/kg per day",323.25%
same,Percent increase in MMP-14 with respect to the control group,"lung tissue, Group 7, inhalation 0.2 mg/kg per day",184.50%
same,Percent increase in MMP-14 with respect to the control group,"lung tissue, Group 8, inhalation 0.4 mg/kg per day",153.36%
same,Percent increase in MMP-14 with respect to the control group,"nasal cavity tissue, Group 1, oral 10 mg/kg per day","1,016.51%"
same,Percent increase in MMP-14 with respect to the control group,"nasal cavity tissue, Group 2, oral 40 mg/kg per day",680.45%
same,Percent increase in MMP-14 with respect to the control group,"nasal cavity tissue, Group 3, oral 80 mg/kg per day",412.64%
same,Percent increase in MMP-14 with respect to the control group,"nasal cavity tissue, Group 4, oral 100 mg/kg per day",317.68%
same,Percent increase in MMP-14 with respect to the control group,"nasal cavity tissue, Group 5, inhalation 0.05 mg/kg per day","1,190.13%"
same,Percent increase in MMP-14 with respect to the control group,"nasal cavity tissue, Group 6, inhalation 0.1 mg/kg per day",510.81%
same,Percent increase in MMP-14 with respect to the control group,"nasal cavity tissue, Group 7, inhalation 0.2 mg/kg per day",206.80%
same,Percent increase in MMP-14 with respect to the control group,"nasal cavity tissue, Group 8, inhalation 0.4 mg/kg per day",149.00%
same,Percent increase in MMP-14 with respect to the control group,"pharyngeal tissue, Group 1, oral 10 mg/kg per day","1,148.43%"
same,Percent increase in MMP-14 with respect to the control group,"pharyngeal tissue, Group 2, oral 40 mg/kg per day",980.64%
same,Percent increase in MMP-14 with respect to the control group,"pharyngeal tissue, Group 3, oral 80 mg/kg per day",762.45%
same,Percent increase in MMP-14 with respect to the control group,"pharyngeal tissue, Group 4, oral 100 mg/kg per day",560.45%
same,Percent increase in MMP-14 with respect to the control group,"pharyngeal tissue, Group 5, inhalation 0.05 mg/kg per day","1,091.23%"
same,Percent increase in MMP-14 with respect to the control group,"pharyngeal tissue, Group 6, inhalation 0.1 mg/kg per day",709.21%
same,Percent increase in MMP-14 with respect to the control group,"pharyngeal tissue, Group 7, inhalation 0.2 mg/kg per day",245.45%
same,Percent increase in MMP-14 with respect to the control group,"pharyngeal tissue, Group 8, inhalation 0.4 mg/kg per day",135.00%
